Assay results published in patent US20250381109A1, “KERATIN TREATMENT FORMULATIONS AND METHODS” (Olaplex, Inc., priority 2014, published 2025).

How the values were obtained:
[1] = Traditional perm versus perm using maleic acid (Example 6); conditions: perm after ammonium thioglycolate or dithiothreitol; after 40 cycles of washing and drying
[2] = Hair breakage due to repeated application of traditional perm and the active agent formulation (Example 7); conditions: after dithiothreitol or ammonium thioglycolate; procedure repeated three times over a 48 hour time period
[3] = Hair treated with bleaching formulation applied simultaneously with active agent formulation versus bleaching formulation alone (Example 4); design: species or system human; conditions: 3.5 g of 12 wt % in water added to bleaching mixture, two hours
Experimental: (§1) (1) 0.5 ounces of powder lightener (Clairol Professional, Basic White) and 0.5 ounces of conditioning cream developer (Redken, Blonde Icing) were combined to form a bleaching mixture. 3.5 g of 2-(methacryloyloxy)ethan-1-aminium (Z)-3-carboxyacrylate (12 wt % in water) was added to the bleaching mixture and thoroughly mixed with a brush.
(§2) (2) The bleaching mixture prepared was brushed onto the swatches of hair with a brush in order to thoroughly coat the strands of hair. The mixture coated hair was wrapped in aluminum paper and allowed to stand under ambient conditions for a period of two hours.
(§3) (3) After the two hour bleaching period the swatches of hair were washed with shampoo and the hair was subsequently allowed to air dry.

[4] = Hair treated with bleaching formulation applied simultaneously with active agent formulation versus bleaching formulation alone (Example 5); design: species or system human; conditions: 3.5 g of 10 wt % in water added to bleaching mixture, two hours
Experimental: as §1, with “prop-2-en-1-aminium” for “2-(methacryloyloxy)ethan-1-aminium”, “(10” for “(12”
as §2, §3

For `OO` [hydrogen peroxide], the “reduction in the overall curl” value [1] was “only slight reduction in the overall curl” and the “breakage upon visual inspection” value [2] was “significant breakage”.

For `C=C(C)C(=O)OCCN.O=C(O)/C=C\C(=O)O` [2-(methacryloyloxy)ethan-1-aminium (Z)-3-carboxyacrylate], the appearance [3] was “healthy appearance”, the breakage [3] was “no discernible breakage” and the feel [3] was “great feel”.

In the case of `C=CCN.O=C(O)/C=C\C(=O)O` [prop-2-en-1-aminium (Z)-3-carboxyacrylate], the appearance [4] is reported as “healthy appearance”, the breakage [4] is reported as “no discernible breakage” and the feel [4] is reported as “great feel”.
